Assay results from patent publication US20250019370A1, “L-LYSINE SALT OF 4-CHLORO-5-[4-(2,6-DICHLOROPHENYL)SULFONYLPIPERAZIN-1-YL]-1-BENZOFURAN-2-CARBOXYLIC ACID AND VARIOUS FORMS THEREOF” (ENYO PHARMA, priority 2023, published 2025).

Tests used:
[1] = Solubility kinetics in pH 4.5 acetate buffer; format: physicochemical; conditions: 37 ° C.
Description: The solubility kinetics of the salt forms as well as the native EYP001 free acid form were determined in FaSSIF and FeSSIF media, and in a pH 4.5 acetate buffer as detailed below:
The samples were prepared by adding an excess of each tested bulk (salt or native EYP001) to a given volume of test medium. The suspension was stirred by orbital stirring over 1 hour (in both pH 4.5 acetate buffer and FeSSIF medium) or 24 hours (inFaSSIF medium) at 37° C., protected from light.
In pH 4.5 acetate buffer, the soluble concentration was assessed after 0.5 hour and 1 hour of stirring.
At each time point, the “supernatant” was isolated and diluted in a solvent mixture allowing its injection into the chromatographic system. The concentration in solution in the test medium was determined by HPLC with external standardization.

[2] = Solubility kinetics in FeSSIF medium; format: physicochemical; conditions: for Soluble fraction: 37 ° C.; for pH: pH given with the soluble fraction
Description: The solubility kinetics of the salt forms as well as the native EYP001 free acid form were determined in FaSSIF and FeSSIF media, and in a pH 4.5 acetate buffer as detailed below: The samples were prepared by adding an excess of each tested bulk (salt or native EYP001) to a given volume of test medium. […] In FaSSIF medium, the soluble concentration was assessed after 24 hours of stirring. […] At each time point, the “supernatant” was isolated and diluted in a solvent mixture allowing its injection into the chromatographic system. The concentration in solution in the test medium was determined by HPLC with external standardization.

SMILES: O=C(O)c1cc2c(Cl)c(N3CCN(S(=O)(=O)c4c(Cl)cccc4Cl)CC3)ccc2o1.c1ccc(CCNCc2ccccc2)cc1 [EYP001 Benethamine salt (polymorph I)]
- Soluble fraction ([1]; after 0.5 h): 0.001 mg/mL of EYP001
- Soluble fraction ([1]; after 1 h): 0.001 mg/mL of EYP001

SMILES: O=C(O)c1cc2c(Cl)c(N3CCN(S(=O)(=O)c4c(Cl)cccc4Cl)CC3)ccc2o1.c1ccc(CCNCc2ccccc2)cc1 [EYP001 Benethamine salt (polymorph II)]
- Soluble fraction ([1]; after 0.5 h): 0.0002 mg/mL of EYP001
- Soluble fraction ([1]; after 1 h): 0.0003 mg/mL of EYP001

SMILES: O=C([O-])c1cc2c(Cl)c(N3CCN(S(=O)(=O)c4c(Cl)cccc4Cl)CC3)ccc2o1.[K+] [EYP001 Potassium salt, reference compound]
- Soluble fraction ([2]; after 0.5 h): 0.35 mg/mL of EYP001
- Soluble fraction ([2]; after 1 h): 0.38 mg/mL of EYP001
- pH ([2]; after 0.5 h): (pH = 5.0)
- pH ([2]; after 1 h): (pH = 5.0)
